Laboratory results as given in US6972288B1, “4-amino-quinazoline and quinoline derivatives having an inhibitory effect on signal transduction mediated by tyrosine kinases” (Boehringer Ingelheim Pharma KG, priority 1999, dated 2005).
pIC50: −log10 of the molar value.

What was measured:
human EGF-R = target: T1, human EGF-R (Homo sapiens, UniProt P00533); assay: Inhibition of EGF-dependent proliferation of F/L-HERc cells (Cell Titer 96 AQueous assay); assay type: cell-based; settings: F/L-HERc cells (murine IL-3-dependent line expressing human EGF-R), stimulated with EGF 20 ng/ml, 48 hours at 37° C.
T1 construct: expressed in transfected cells; host or cells: F/L-HERc cells, derived from the murine IL-3-dependent line FDC-P1 ('FDC-PI' [sic]); retroviral vector LXSN, packaging line GP+E86
Excerpt: A cell line of murine origin dependent on interleukin-3 (IL-3) which was genetically modified to express functional human EGF-R was used here. The proliferation of these cells known as F/L-HERc can therefore be stimulated either by murine IL-3 or by EGF (cf. von Rüden, T. et al. in EMBO J. 7, 2749-2756 (1988) and Pierce, J. H. et al. in Science 239. 628-631 (1988)).
The starting material used for the F/L-HERc cells was the cell line FDC-PI, the production of which has been described by Dexter, T. M. et al, in J. Exp. Med. 152, 1036-1047 (1980). alternatively, however, other growth-factor-dependent cells may also be used (cf. for example Pierce, J. H. et al. in Science 239, 628-631 (1988), Shibuya, H. et al. in Cell 70, 57-67 (1992) and alexander, W. S. et al. in EMBO J. 10, 3683-3691 (1991)). For expressing the human EGF-R cDNA (cf. Ullrich, A. et al. in Nature 309, 418-425 (1984)) recombinant retroviruses were used as described by von Rüden, T. et al., EMBO J. 7, 2749-2756 (1988), except that the retroviral vector LXSN (cf. Miller, A. D. et al. in BioTechniques 1, 980-990 (1989)) was used for the expression of the EGF-R cDNA and the line GP+E86 (cf, Markowitz, D, et al. in J. Virol. 62, 1120-1124 (1988)) was used as the packaging cell.
The test was performed as follows: • F/L-HERC cells were cultivated in RPMI/1640 medium (BioWhittaker), supplemented with 10% foetal calf serum (FCS, Boehringer Mannheim). 2 mM glutamine (BioWhittaker), standard antibiotics and 20 ng/ml of human EGF (Promega), at 37° C. and 5% CO2. In order to investigate the inhibitory activity of the compounds according to the invention, 1.5×10^4 cells per well were cultivated in triplicate in 96-well plates in the above medium ([…]), the cell proliferation being stimulated with either EGF (20 ng/ml) or murine IL-3. The IL-3 used was obtained from culture supernatants of the cell line X63/0 mIL-3 (cf. Karasuyama, 4. et al. in Eur. J. Immunol. 18, 97-104 (19881). The compounds according to the invention were dissolved in 100% dimethylsulphoxide (DMSO) and added to the cultures in various dilutions, the maximum DMSO concentration being 1%. The cultures were incubated for 48 hours at 37° C.
In order to determine the inhibitory activity of the compounds according to the invention the relative cell number was measured in O.D. units using the Cell Titer 96™ AQueous Non-Radioactive Cell Proliferation Assay (Promega). The relative cell number was calculated as a percentage of the control (F/LHERc cells without inhibitor) and the concentration of active substance which inhibits the proliferation of the cells by 50% (IC50) was derived therefrom.

T1 sequence (P00533 25-1210): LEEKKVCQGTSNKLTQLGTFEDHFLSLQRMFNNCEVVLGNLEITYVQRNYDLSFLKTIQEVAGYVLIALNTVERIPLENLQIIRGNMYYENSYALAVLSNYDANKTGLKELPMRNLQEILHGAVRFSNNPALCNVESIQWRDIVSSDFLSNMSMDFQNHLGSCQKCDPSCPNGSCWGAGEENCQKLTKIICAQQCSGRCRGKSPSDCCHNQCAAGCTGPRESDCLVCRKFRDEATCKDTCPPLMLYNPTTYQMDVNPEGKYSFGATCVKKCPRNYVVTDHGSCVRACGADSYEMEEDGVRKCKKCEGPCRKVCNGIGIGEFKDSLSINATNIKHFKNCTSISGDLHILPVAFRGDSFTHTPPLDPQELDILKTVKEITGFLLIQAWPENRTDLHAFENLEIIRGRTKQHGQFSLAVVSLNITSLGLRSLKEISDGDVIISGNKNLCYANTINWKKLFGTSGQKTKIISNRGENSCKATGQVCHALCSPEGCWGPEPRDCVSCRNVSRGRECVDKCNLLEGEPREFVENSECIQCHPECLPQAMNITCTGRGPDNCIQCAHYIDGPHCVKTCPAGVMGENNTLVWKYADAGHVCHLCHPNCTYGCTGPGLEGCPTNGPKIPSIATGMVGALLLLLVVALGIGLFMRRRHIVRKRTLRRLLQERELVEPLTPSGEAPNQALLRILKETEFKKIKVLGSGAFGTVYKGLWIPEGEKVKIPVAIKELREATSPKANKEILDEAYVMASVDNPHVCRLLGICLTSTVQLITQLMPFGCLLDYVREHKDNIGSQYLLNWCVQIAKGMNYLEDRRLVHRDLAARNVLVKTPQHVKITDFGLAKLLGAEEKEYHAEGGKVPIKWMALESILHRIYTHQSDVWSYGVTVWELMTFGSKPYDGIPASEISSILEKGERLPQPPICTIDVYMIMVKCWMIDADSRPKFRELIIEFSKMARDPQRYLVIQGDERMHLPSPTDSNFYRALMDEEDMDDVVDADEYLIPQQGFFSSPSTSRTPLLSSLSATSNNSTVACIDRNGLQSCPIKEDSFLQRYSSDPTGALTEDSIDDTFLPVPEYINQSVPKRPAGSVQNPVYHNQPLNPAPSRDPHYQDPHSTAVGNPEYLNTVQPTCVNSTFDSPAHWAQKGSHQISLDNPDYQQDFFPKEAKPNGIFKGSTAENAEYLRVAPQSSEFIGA

| melting point [°C] | pIC50 (human EGF-R) | Compound |
| --- | --- | --- |
| 80 to 85 | 8.59 | C=CC(=O)Nc1cc2c(Nc3cccc(Br)c3)ncnc2cc1OCCCN1CCN(CC(=O)OCC)CC1 [Example 1, 4-[(3-Bromophenyl)amino]-7-(3-{4-[(ethoxycarbonyl)methyl]-piperazin-1-yl)propyloxy)-6-[(vinylcarbonyl)amino]-quinazoline] |
| 90 to 92 | 7.13 | CCOC(=O)CN(CC=CC(=O)Nc1cc2c(Nc3ccc(F)c(Cl)c3)ncnc2cc1OCC1CC1)CCOC(C)=O [Example 11, 4-[(3-chloro-4-fluorophenyl)amino]-6-[(4-(N-[(ethoxycarbonyl)-methyl]-N-[2-(methylcarbonyloxy)ethyl]amino]-1-oxo-2-buten-1-yl)amino]-7-cyclopropylmethoxy-quinazoline] |
| 182 to 183 | 8.28 | CCOC(=O)CN(C)CC=CC(=O)Nc1ccc2ncnc(Nc3cccc(Br)c3)c2c1 [Example 2, 4-[(3-Bromophenyl)amino]-6-[(4-{N-[(ethoxycarbonyl)methyl]-N-methylamino}-1-oxo-2-buten-1-yl)-amino]-quinazoline] |
